Experiment [1] is described as follows: Ratio relative to paclitaxel (EC0.01) was evaluated in a tubulin polymerization assay. Format: functional.
Experiment [2] is described as follows: Cytotoxicity ratio was determined by IC50 to that of IC50 of paclitaxel. Format: functional.
The next experiment deals with HCT-116. Put plainly: In vitro cytotoxicity against human colon cancer cell lines (HCT116). Format: functional, cell-based.
Experiment [3] concerns Mus musculus. Put plainly: In vivo anticancer activity against murine M 109 lung carcinoma after intraperitoneal administration at a 1.25 mg/kg/inj concentration. Format: functional.
A short description of experiment [4]: Ratio fo the (IC50-R) compound relative to (IC50-S) paclitaxel sensitive HCT116 human colon cancer cell line. Format: functional, HCT-116.
In experiment [5] the test system is Mus musculus. Description: In vivo anticancer activity against murine M 109 lung carcinoma after intraperitoneal administration at a 40 mg/kg/inj concentration. Format: functional.
In experiment [6] the test system is Mus musculus. Put plainly: In vivo anticancer activity against murine M 109 lung carcinoma after intraperitoneal administration at a 32 mg/kg/inj concentration. Format: functional.
The test system of experiment [7] is Mus musculus. Description: In vivo anticancer activity against murine M 109 lung carcinoma after intraperitoneal administration at a 50 mg/kg/inj concentration. Format: functional.
In experiment [8] the test system is Mus musculus. Description: In vivo anticancer activity against murine M 109 lung carcinoma after intraperitoneal administration at a 60 mg/kg/inj concentration; Range 145-218. Format: functional.

SMILES strings stand for the structures. Where only a bound is given, the exact number is not on record here.

In ChEMBL document CHEMBL1133195, “Structure-activity relationships study at the 3'-N position of paclitaxel. Part 2: synthesis and biological evaluation of 3'-N-thiourea- and 3'-N-thiocarbamate-bearing paclitaxel analogues” (Bioorg Med Chem Lett, 2000) one finds Ratio, IC50 and T/C data, which are given here for 14 molecules.

By IC50 is commonly meant the midpoint of a concentration-inhibition curve. High values mean lower potency, low ones higher potency. For `CC(=O)O[C@H]1C(=O)[C@]2(C)[C@@H](O)CC3OC[C@@]3(OC(C)=O)[C@H]2[C@H](OC(=O)c2ccccc2)C2(O)C[C@H](OC(=O)[C@H](O)[C@@H](/N=C(\S)NCc3ccccc3)c3ccccc3)C(C)=C1C2(C)C` (stereo partly specified), the Ratio was 12 in experiment [1] and above 40 in experiment [2]. This molecule displayed an IC50 in the experiment with HCT-116 above 87 nM.
For the molecule `CC(=O)O[C@H]1C(=O)[C@]2(C)[C@@H](O)CC3OC[C@@]3(OC(C)=O)[C@H]2[C@H](OC(=O)c2ccccc2)C2(O)C[C@H](OC(=O)[C@H](O)[C@@H](NC(=O)SC(C)(C)C)c3ccco3)C(C)=C1C2(C)C` (stereo partly specified), the T/C in the experiment with Mus musculus [3] is 134. Also, the Ratio in experiment [4] was found to be 2.2; in experiment [1], 0.1; in [2], 0.3. In the experiment on HCT-116, this molecule registered an IC50 of 0.9 nM.
In the experiment on Mus musculus [5], `CCCCSC(=O)N[C@@H](c1ccco1)[C@@H](O)C(=O)O[C@H]1CC2(O)[C@@H](OC(=O)c3ccccc3)[C@H]3[C@](C)(C(=O)[C@H](OC(C)=O)C(=C1C)C2(C)C)[C@@H](O)CC1OC[C@]13OC(C)=O` (stereo partly specified) registered a T/C of 139. Further, the Ratio in [4] was 21.3; in experiment [1] it was 0.2; in experiment [2], 0.17. Further, the IC50 in the experiment on HCT-116 was determined as 0.3 nM.
`CC(=O)O[C@H]1C(=O)[C@]2(C)[C@@H](O)CC3OC[C@@]3(OC(C)=O)[C@H]2[C@H](OC(=O)c2ccccc2)C2(O)C[C@H](OC(=O)[C@H](O)[C@@H](/N=C(\S)NC(C)(C)C)c3ccco3)C(C)=C1C2(C)C` (stereo partly specified): the Ratio in experiment [4] came out at 40; in experiment [1] it was 1; in [2] it was 4.9. The IC50 in the experiment on HCT-116 was 11.3 nM.
For `CC(=O)O[C@H]1C(=O)[C@]2(C)[C@@H](O)CC3OC[C@@]3(OC(C)=O)[C@H]2[C@H](OC(=O)c2ccccc2)C2(O)C[C@H](OC(=O)[C@H](O)[C@@H](NC(=O)OC(C)(C)C)c3ccccc3)C(C)=C1C2(C)C` (stereo partly specified), in the experiment with Mus musculus [6], the T/C turned out to be 177. Further, the Ratio in [4] worked out at 12; in [1], 0.66; in experiment [2], 0.6. In the experiment on HCT-116, 2.4 nM corresponded to half-maximal inhibition (IC50).
For `CC(=O)O[C@H]1C(=O)[C@]2(C)[C@@H](O)CC3OC[C@@]3(OC(C)=O)[C@H]2[C@H](OC(=O)c2ccccc2)C2(O)C[C@H](OC(=O)[C@H](O)[C@@H](/N=C(\S)NC(C)(C)C)c3ccccc3)C(C)=C1C2(C)C` (stereo partly specified), the values for the Ratio in experiment [4], in experiment [1] and in experiment [2] were 31, 19 and around 50, respectively. The molecule also had an IC50 in the experiment with HCT-116 of 96.7 nM.
For `CCCC/N=C(\S)N[C@@H](c1ccco1)[C@@H](O)C(=O)O[C@H]1CC2(O)[C@@H](OC(=O)c3ccccc3)[C@H]3[C@](C)(C(=O)[C@H](OC(C)=O)C(=C1C)C2(C)C)[C@@H](O)CC1OC[C@]13OC(C)=O` (stereo partly specified), in that order: 252, 1, 4.6 and 10.5 nM.
Turning to `CC(=O)O[C@H]1C(=O)[C@]2(C)[C@@H](O)CC3OC[C@@]3(OC(C)=O)[C@H]2[C@H](OC(=O)c2ccccc2)C2(O)C[C@H](OC(=O)[C@H](O)[C@@H](NC(=O)SC(C)(C)C)c3ccccc3)C(C)=C1C2(C)C` (stereo partly specified), the Ratio in experiment [4] was 4.7; in experiment [1], 0.3; in [2], 0.3. Moreover, it took 0.9 nM to reach half-maximal inhibition in the experiment with HCT-116 (IC50).
For `CC(=O)O[C@H]1C(=O)[C@]2(C)[C@@H](O)CC3OC[C@@]3(OC(C)=O)[C@H]2[C@H](OC(=O)c2ccccc2)C2(O)C[C@H](OC(=O)[C@H](O)[C@@H](NC(=O)SC(C)C)c3ccco3)C(C)=C1C2(C)C` (stereo partly specified), the Ratio turned out to be 1.2 in experiment [4], 0.2 in experiment [1] and 14.7 in experiment [2]. Moreover, in the experiment with HCT-116, the IC50 is 32.5 nM.
For `CC(=O)O[C@@]12COC1C[C@H](O)[C@@]1(C)C(=O)[C@H](O)C3=C(C)[C@@H](OC(=O)C(O)[C@@H](NC(=O)NC(C)(C)C)c4ccccc4)CC(O)([C@@H](OC(=O)c4ccccc4)[C@@H]12)C3(C)C` (stereo partly specified), the Ratio in [4] stood at 46.8; in experiment [1], 0.72; in experiment [2], 1. This molecule also gave a half-maximal inhibitory concentration (IC50) in the experiment on HCT-116 of 4 nM.
In turn, `CC(=O)O[C@H]1C(=O)[C@]2(C)[C@@H](O)CC3OC[C@@]3(OC(C)=O)[C@H]2[C@H](OC(=O)c2ccccc2)C2(O)C[C@H](OC(=O)[C@H](O)[C@@H](NC(=O)SCC(C)C)c3ccco3)C(C)=C1C2(C)C` (stereo partly specified) showed a T/C in the experiment on Mus musculus [7] of 145. Besides, the Ratio in experiment [4] was found to be 7.7; in [1] it was 0.2; in [2], 0.28. This molecule had an IC50 in the experiment on HCT-116 of 0.7 nM.
Turning to `CC(=O)O[C@H]1C(=O)[C@@]2(C)[C@H]([C@H](OC(=O)c3ccccc3)[C@]3(O)C[C@H](OC(=O)[C@H](O)[C@@H](NC(=O)c4ccccc4)c4ccccc4)C(C)=C1C3(C)C)[C@]1(OC(C)=O)CO[C@@H]1C[C@@H]2O` [PACLITAXEL], in the experiment on Mus musculus [8], the T/C came out at 145.
On to `CCCCSC(=O)N[C@@H](c1ccccc1)[C@@H](O)C(=O)O[C@H]1CC2(O)[C@@H](OC(=O)c3ccccc3)[C@H]3[C@](C)(C(=O)[C@H](OC(C)=O)C(=C1C)C2(C)C)[C@@H](O)CC1OC[C@]13OC(C)=O` (stereo partly specified), for which the Ratio was 29 in experiment [4], 0.6 in experiment [1] and 0.88 in experiment [2]. Further, the IC50 in the experiment on HCT-116 was found to be 5.8 nM.
For `CCCC/N=C(\S)N[C@@H](c1ccccc1)[C@@H](O)C(=O)O[C@H]1CC2(O)[C@@H](OC(=O)c3ccccc3)[C@H]3[C@](C)(C(=O)[C@H](OC(C)=O)C(=C1C)C2(C)C)[C@@H](O)CC1OC[C@]13OC(C)=O` (stereo partly specified), in that order: 64, 18, 21.8 and 50.2 nM.
